{"source": "patent US7122340B2", "about": "“Regulatory T cells; methods” (Schering Corporation, priority 2000, dated 2006)", "system": "naive T cells (CD4+CD62L+)", "test": "Differentiation of naive CD4+ T cells stimulated with antigen and antigen presenting cells; cytokine profile after restimulation (FACS, secreted cytokines)", "assay_type": "cell-based, mouse", "settings": "antigen and APC culture of DO11.10 CD4+ T cells", "method": "IL-2 is present in the culture after the first 3 days of activation. VitD3 is used at 4×10^-8 M (preferably in the range 4×10^-9 M to 4×10^-7 M) while DEX is used at 10^-8M (preferably in the range of 10^-9 M to 10^-7 M).\nThe cytokine profiles produced by the cells after restimulation are evaluated after 6 h by FACS analysis, while the quantities are accumulated by the respective cell population in 1 ml for 48 h.\nDO.11.10 mice transgenic for an ovalbumin323-339 specific αβTCR were used as a source of antigen specific T cells. […] They were backcrossed on to a BALB/C background and (DO11.10×BALB/C)F1 mice were used as the source of T cells in all experiments. BALB/C (Taconics, Germantown, N.Y.) mice were used to provide splenic antigen presenting cells (APC).\nBriefly, immunomagnetic depletion of CD8α^+, B220^+, and Mac-1^+ splenocytes was performed using goat anti-rat Ig coated beads (Biomag, PerSeptive Biosystems, Framingham, Mass.). The depleted population was then stained with anti-CD4-FITC and anti-L-selectin-PE and CD4^+ L-selectin^high cells were sorted using a FACStar^Plus cell sorter (Becton-Dickinson, Mountain View, Calif.). […] After 6 days, T cells were harvested, counted, and restimulated at 2.5×10^4 per well in 200 μl in 96 well plates for phenotype analysis by cytokine secretion. […]"}
{"compound": "C=C1/C(=C\\C=C2/CCC[C@]3(C)[C@@H]([C@H](C)CCCC(C)(C)O)CC[C@@H]23)C[C@@H](O)C[C@@H]1O", "note": "[VitD3, 1,25(OH)-Dihydroxyvitamin D3]", "values": [{"measurement": "Resulting T cell population / cytokine profile (in words)", "value": "drive the development of Th2 cells producing high levels of IL-4 and IL-5 and reduced IFN-γ"}]}
